The text below walks through data of patent US20050032888A1 (priority 2001, published 2005).

The subject of one data set is skin of older probands. Kind of data set: Regular topical application of ascorbic acid to the skin of older probands (confocal microscopy in vivo). An excerpt:
Status and changes of the microcapillary system and the rete peg pattern can be shown, followed, and quantified on probands quickly (in minutes) by means of modern techniques, such as confocal microscopy in vivo—i.e., free of injury, repeatedly as often as desired, and with dynamic responses to actual influences—both with respect to the density of the rete pegs or microcapillaries (number per surface unit) and with respect to their height, which makes it possible to estimate the size of the exchange surface.

The conditions of data set [1]: cited from earlier work.

SMILES strings stand for the structures.

Regarding `O=C1O[C@H]([C@@H](O)CO)C(O)=C1O` [ascorbic acid], in the data set on skin of older probands, the “density of rete pegs and microcapillaries” value is recorded as “reversibly increased to the extent of youthful skin”; the “elasticity parameters of the skin (formation of suction blisters)” value is reported as “improvement”; the “moisture content and roughness of the horny layer” value is reported as “improvement”. For the same compound, in data set [1] (heat), the stability to heat entry is “sensitive to heat”. Further, the “stability in a pure, dry state” value in data set [1] (pure, dry state, light, air, heat) was “relatively resistant to light, air, and heat”. In addition, the “stability in the presence of traces of heavy metal and in an alkaline environment” value in data set [1] (traces of heavy metal, alkaline environment, air and atmospheric oxygen) is on record as “decomposes”.
